Measurements taken from patent publication US10961163B2, “Compositions and methods useful for enhancing the microbial conversion of nitrate into ammonium” (The Regents of the University of California, priority 2016, dated 2021).
Peptide text beside a SMILES is read from it.

Test system: microbial enrichment cultures
Test: Ammonium production normalized by growth (NH4+/OD ratio) of microbial enrichment cultivated on individual carbon sources
Type: cell-based
Settings: not given

**Q.** `N=C(N)NCCC[C@H](N)C(=O)O` [L-Arginine] was tested. Which Ammonium/OD ratio did it give?
**A.** The Ammonium/OD ratio was 1.79.

**Q.** How did the Ammonium/OD ratio turn out when `NCCCC[C@H](N)C(=O)O` [L-Lysine] was run?
**A.** Its Ammonium/OD ratio is 1.02.

**Q.** Which Ammonium/OD ratio does the source give for `O.O=C([O-])C[C@H](O)C(=O)[O-].[Na+].[Na+]` [L-Malic acid disodium salt monohydrate] here?
**A.** Its Ammonium/OD ratio is 1.43.

**Q.** For `N[C@@H](Cc1c[nH]c2ccccc12)C(=O)O` [L-Tryptophan], which Ammonium/OD ratio is on record?
**A.** Its Ammonium/OD ratio is 1.23.

Same assay, conditions: average of 8 independent cultures amended with varying concentrations of the carbon source; ammonium by colorimetric (Bertholet) assay, growth by OD 600

**Q.** Which Ammonium/OD ratio does the source give for `O=C(O)CC(O)C(=O)O` (racemic) [D,L-Malic Acid] here?
**A.** Its Ammonium/OD ratio is 1.41.

**Q.** With `NCC(=O)NC(CC(=O)O)C(=O)O` (racemic) [Gly-DL-Asp] as the molecule, how does the Ammonium/OD ratio read?
**A.** Its Ammonium/OD ratio is 1.17.

**Q.** `CC(O)C(=O)[O-].[Na+]` (racemic) [Sodium D,L-Lactate] was tested. Which Ammonium/OD ratio did it give?
**A.** The Ammonium/OD ratio was 0.91.

**Q.** With `O=CC[C@H](O)[C@H](O)CO` [2-Deoxy-D-Ribose] as the molecule, how does the Ammonium/OD ratio read?
**A.** Its Ammonium/OD ratio is 1.00.

**Q.** Which Ammonium/OD ratio does the source give for `O=C(O)c1ccc(O)cc1` [4-Hydroxybenzoic Acid] here?
**A.** The Ammonium/OD ratio was 1.31.

**Q.** For `O=C(CO)[C@@H](O)[C@H](O)[C@@H](O)C(=O)[O-].[K+]` [5-Keto-D-Gluconic Acid potassium salt], which Ammonium/OD ratio is on record?
**A.** Its Ammonium/OD ratio is 1.12.

**Q.** With `Cl.Nc1ncnc2nc[nH]c12.O` [Adenine hydrochloride hydrate] as the molecule, how does the Ammonium/OD ratio read?
**A.** Its Ammonium/OD ratio is 0.93.

**Q.** For `Nc1ncnc2c1ncn2[C@@H]1O[C@H](CO)[C@@H](O)[C@H]1O` [Adenosine], which Ammonium/OD ratio is on record?
**A.** Its Ammonium/OD ratio is 1.25.

**Q.** Which Ammonium/OD ratio does the source give for `OC[C@H]1O[C@@H](O[C@H]2[C@H](O)[C@@H](O)[C@H](O)O[C@@H]2CO)[C@H](O)[C@@H](O)[C@H]1O` [Beta-Lactose] here?
**A.** Its Ammonium/OD ratio is 0.99.

**Q.** How did the Ammonium/OD ratio turn out when `C[N+](C)(C)CC(O)CC(=O)[O-].Cl` (stereo not drawn) [Carnitine Hydrochloride] was run?
**A.** Its Ammonium/OD ratio is 1.45.

**Q.** For `O=C(O)CC(O)(CC(=O)O)C(=O)O` [Citric Acid], which Ammonium/OD ratio is on record?
**A.** The Ammonium/OD ratio was 1.65.

**Q.** `Nc1ccn([C@@H]2O[C@H](CO)[C@@H](O)[C@H]2O)c(=O)n1` [Cytidine] was tested. Which Ammonium/OD ratio did it give?
**A.** Its Ammonium/OD ratio is 1.64.

**Q.** With `Nc1cc[nH]c(=O)n1` [Cytosine] as the molecule, how does the Ammonium/OD ratio read?
**A.** Its Ammonium/OD ratio is 1.37.

**Q.** How did the Ammonium/OD ratio turn out when `C[C@@H](N)C(=O)O` [D-Alanine] was run?
**A.** The Ammonium/OD ratio was 1.08.

**Q.** With `O=C[C@@H](O)[C@H](O)[C@H](O)CO` [D-Arabinose] as the molecule, how does the Ammonium/OD ratio read?
**A.** The Ammonium/OD ratio was 1.21.

**Q.** How did the Ammonium/OD ratio turn out when `OC[C@H]1O[C@@H](O[C@H]2[C@H](O)[C@@H](O)[C@H](O)O[C@@H]2CO)[C@H](O)[C@@H](O)[C@@H]1O` [D-Cellobiose] was run?
**A.** The Ammonium/OD ratio was 1.14.

**Q.** For `O=C(CO)[C@@H](O)[C@H](O)[C@H](O)CO` [D-Fructose], which Ammonium/OD ratio is on record?
**A.** The Ammonium/OD ratio was 1.42.

**Q.** For `O=C[C@H](O)[C@@H](O)[C@@H](O)[C@H](O)CO` [D-Galactose], which Ammonium/OD ratio is on record?
**A.** Its Ammonium/OD ratio is 0.93.

**Q.** `O.O=C[C@H](O)[C@@H](O)[C@@H](O)[C@H](O)C(=O)O` [D-Galacturonic Acid monohydrate] was tested. Which Ammonium/OD ratio did it give?
**A.** Its Ammonium/OD ratio is 0.92.

**Q.** With `O=C([O-])[C@H](O)[C@@H](O)[C@H](O)[C@H](O)CO.[Na+]` [D-Gluconic Acid sodium salt] as the molecule, how does the Ammonium/OD ratio read?
**A.** The Ammonium/OD ratio was 1.19.

**Q.** How did the Ammonium/OD ratio turn out when `Cl.N[C@H]1C(O)O[C@H](CO)[C@@H](O)[C@@H]1O` (stereo partly drawn) [D-Glucosamine Hydrochloride] was run?
**A.** The Ammonium/OD ratio was 1.16.

**Q.** `O=C[C@H](O)[C@@H](O)[C@H](O)[C@H](O)COP(=O)([O-])[O-].[Na+].[Na+]` [D-Glucose-6-Phosphate sodium salt] was tested. Which Ammonium/OD ratio did it give?
**A.** The Ammonium/OD ratio was 0.99.

**Q.** With `O=C[C@H](O)[C@@H](O)[C@H](O)[C@H](O)CO` [D-Glucose] as the molecule, how does the Ammonium/OD ratio read?
**A.** The Ammonium/OD ratio was 1.33.

**Q.** `O=C[C@H](O)[C@@H](O)[C@H](O)[C@H](O)C(=O)O` [D-Glucuronic Acid] was tested. Which Ammonium/OD ratio did it give?
**A.** Its Ammonium/OD ratio is 1.02.

**Q.** Which Ammonium/OD ratio does the source give for `OC[C@H]1O[C@H](O[C@H]2[C@H](O)[C@@H](O)[C@H](O)O[C@@H]2CO)[C@H](O)[C@@H](O)[C@@H]1O` [D-Maltose monohydrate] here?
**A.** Its Ammonium/OD ratio is 0.94.

**Q.** With `OC[C@@H](O)[C@@H](O)[C@H](O)[C@H](O)CO` [D-Mannitol] as the molecule, how does the Ammonium/OD ratio read?
**A.** Its Ammonium/OD ratio is 0.90.

**Q.** Which Ammonium/OD ratio does the source give for `O=C[C@@H](O)[C@@H](O)[C@H](O)[C@H](O)CO` [D-Mannose] here?
**A.** The Ammonium/OD ratio was 0.96.

**Q.** How did the Ammonium/OD ratio turn out when `O.O.O.O.O.OC[C@H]1O[C@H](OC[C@H]2O[C@H](O[C@]3(CO)O[C@H](CO)[C@@H](O)[C@@H]3O)[C@H](O)[C@@H](O)[C@@H]2O)[C@H](O)[C@@H](O)[C@H]1O` [D-Raffinose pentahydrate] was run?
**A.** Its Ammonium/OD ratio is 1.03.

**Q.** How did the Ammonium/OD ratio turn out when `O=C[C@H](O)[C@H](O)[C@H](O)CO` [D-Ribose] was run?
**A.** The Ammonium/OD ratio was 1.36.

**Q.** How did the Ammonium/OD ratio turn out when `N[C@H](CO)C(=O)O` [D-Serine] was run?
**A.** The Ammonium/OD ratio was 1.81.

**Q.** For `OC[C@@H](O)[C@@H](O)[C@H](O)[C@@H](O)CO` [D-Sorbitol], which Ammonium/OD ratio is on record?
**A.** The Ammonium/OD ratio was 0.82.

**Q.** How did the Ammonium/OD ratio turn out when `O=C(CO)[C@@H](O)[C@@H](O)[C@H](O)CO` [D-Tagatose] was run?
**A.** Its Ammonium/OD ratio is 1.14.

**Q.** Which Ammonium/OD ratio does the source give for `O.O.OC[C@H]1O[C@H](O[C@H]2O[C@H](CO)[C@@H](O)[C@H](O)[C@H]2O)[C@H](O)[C@@H](O)[C@@H]1O` [D-Trehalose dihydrate] here?
**A.** The Ammonium/OD ratio was 0.82.

**Q.** For `O=C[C@H](O)[C@@H](O)[C@H](O)CO` [D-Xylose], which Ammonium/OD ratio is on record?
**A.** The Ammonium/OD ratio was 1.06.

**Q.** For `CCO` [Ethanol], which Ammonium/OD ratio is on record?
**A.** Its Ammonium/OD ratio is 0.91.

**Q.** With `NC(=O)[C@@H](O)[C@@H](O)[C@H](O)[C@@H](O)C=O` [Glucuronamide] as the molecule, how does the Ammonium/OD ratio read?
**A.** Its Ammonium/OD ratio is 1.38.

**Q.** For `NCC(=O)N[C@@H](CCC(=O)O)C(=O)O` [Gly-Glu] (H-Gly-Glu-OH), which Ammonium/OD ratio is on record?
**A.** Its Ammonium/OD ratio is 1.12.

**Q.** `OCC(O)CO` [Glycerol] was tested. Which Ammonium/OD ratio did it give?
**A.** The Ammonium/OD ratio was 1.19.

**Q.** How did the Ammonium/OD ratio turn out when `NCC(=O)O` [Glycine] was run?
**A.** Its Ammonium/OD ratio is 0.94.

**Q.** `O=C(O)CO` [Glycolic Acid] was tested. Which Ammonium/OD ratio did it give?
**A.** Its Ammonium/OD ratio is 1.01.

**Q.** `OC[C@H]1O[C@@H](n2cnc3c(O)ncnc32)[C@H](O)[C@@H]1O` [Inosine] was tested. Which Ammonium/OD ratio did it give?
**A.** Its Ammonium/OD ratio is 1.44.

**Q.** For `C=C(CC(=O)O)C(=O)O` [Itaconic Acid], which Ammonium/OD ratio is on record?
**A.** The Ammonium/OD ratio was 1.40.

**Q.** With `C[C@H](N)C(=O)O` [L-Alanine] as the molecule, how does the Ammonium/OD ratio read?
**A.** The Ammonium/OD ratio was 1.45.

**Q.** `O=C[C@H](O)[C@@H](O)[C@@H](O)CO` [L-Arabinose] was tested. Which Ammonium/OD ratio did it give?
**A.** The Ammonium/OD ratio was 1.70.

**Q.** Which Ammonium/OD ratio does the source give for `NC(=O)C[C@H](N)C(=O)O` [L-Asparagine] here?
**A.** The Ammonium/OD ratio was 1.16.

**Q.** Which Ammonium/OD ratio does the source give for `N[C@@H](CC(=O)O)C(=O)O` [L-Aspartic Acid] here?
**A.** Its Ammonium/OD ratio is 1.24.

**Q.** For `NC(=O)NCCC[C@H](N)C(=O)O` [L-Citrulline], which Ammonium/OD ratio is on record?
**A.** Its Ammonium/OD ratio is 1.46.

**Q.** How did the Ammonium/OD ratio turn out when `Cl.N[C@@H](CS)C(=O)O.O` [L-Cysteine hydrochloride monohydrate] was run?
**A.** Its Ammonium/OD ratio is 1.00.

**Q.** With `C[C@H](O)[C@@H](O)[C@@H](O)[C@H](O)C=O` [L-Fucose] as the molecule, how does the Ammonium/OD ratio read?
**A.** The Ammonium/OD ratio was 1.06.

**Q.** Which Ammonium/OD ratio does the source give for `N[C@@H](CCC(=O)O)C(=O)[O-].O.[K+]` [L-Glutamic acid monopotassium salt monohydrate] here?
**A.** The Ammonium/OD ratio was 0.98.

**Q.** With `NC(=O)CC[C@H](N)C(=O)O` [L-Glutamine] as the molecule, how does the Ammonium/OD ratio read?
**A.** The Ammonium/OD ratio was 1.28.

**Q.** Which Ammonium/OD ratio does the source give for `N[C@@H](Cc1c[nH]cn1)C(=O)O` [L-Histidine] here?
**A.** The Ammonium/OD ratio was 1.10.

**Q.** `CC[C@H](C)[C@H](N)C(=O)O` [L-Isoleucine] was tested. Which Ammonium/OD ratio did it give?
**A.** Its Ammonium/OD ratio is 1.13.

**Q.** For `CC(C)C[C@H](N)C(=O)O` [L-Leucine], which Ammonium/OD ratio is on record?
**A.** Its Ammonium/OD ratio is 1.07.

**Q.** With `CSCC[C@H](N)C(=O)O` [L-Methionine] as the molecule, how does the Ammonium/OD ratio read?
**A.** Its Ammonium/OD ratio is 1.67.

**Q.** Which Ammonium/OD ratio does the source give for `N[C@@H](Cc1ccccc1)C(=O)O` [L-Phenylalanine] here?
**A.** The Ammonium/OD ratio was 1.40.

**Q.** With `O=C(O)[C@@H]1CCCN1` [L-Proline] as the molecule, how does the Ammonium/OD ratio read?
**A.** The Ammonium/OD ratio was 0.94.

**Q.** `C[C@H](O)[C@H](O)[C@@H](O)[C@@H](O)C=O.O` [L-Rhamnose monohydrate] was tested. Which Ammonium/OD ratio did it give?
**A.** The Ammonium/OD ratio was 1.09.

**Q.** For `N[C@@H](CO)C(=O)O` [L-Serine], which Ammonium/OD ratio is on record?
**A.** Its Ammonium/OD ratio is 1.20.

**Q.** For `O=C(CO)[C@@H](O)[C@H](O)[C@@H](O)CO` [L-Sorbose], which Ammonium/OD ratio is on record?
**A.** Its Ammonium/OD ratio is 1.90.

**Q.** Which Ammonium/OD ratio does the source give for `C[C@@H](O)[C@H](N)C(=O)O` [L-Threonine] here?
**A.** Its Ammonium/OD ratio is 1.35.

**Q.** Which Ammonium/OD ratio does the source give for `CC(C)[C@H](N)C(=O)O` [L-Valine] here?
**A.** The Ammonium/OD ratio was 0.94.
